Data taken from patent publication US20260125397A1, “MK2 DEGRADERS AND USES THEREOF” (Kymera Therapeutics, Inc., priority 2023, published 2026).

What was measured:
[1] = target: T1, MK2 (Homo sapiens, UniProt P49137); assay: MK2 degradation in human THP-1 monocytic cells (MSD, 24 h); type: cell-based; parameters: endogenous in cells; conditions: THP-1 cells; for DC50: read-out: MK2 MSD THP-1 degradation 24 h GMean External Abs DC50
Protocol: The human monocytic cancer cell line THP-1 (ATCC (TIB-202)) was cultured in 96 well plates (Coming 3894) at a density of 200,000 cells per well in 100 microlitres in complete growth medium of RPMI 1640 (Gibco) pus 10% fetal Bovine Serum (Coming) and Penicillin/Streptomycin (SolarBio) at 37 degrees Celsius and 5% CO2. A serial dilution of each compound (usually 3 to 5 fold serial dilutions up to 10 separate concentration points) was added to individual wells from a 10 millimolar stock solution, at a background concentration of 0.1% DMSO and the cells were shaken at 600 rpm for 5 minutes and then were cultured for 24 hours at 37 degrees Celsius and 5% carbon dioxide. Separately, a custom MSD (MesoScaleDiscovery, L15XA-3) plate for detection of human MK2 was prepared by coating the plate with the commercial AbCarn ab247272 reagent in 1× Phosphate Buffered Saline at 40 microlitres per well and incubated at 4 degrees Celsius overnight. The next day, the MSD plate was washed with 150 microlitres of Tween buffered saline, blocked with MSD blocking buffer (3% BlockerA from MSD), and washed again.
(§1) The cell plate was centrifuged at 3,200 g for 5 minutes and the supernatant was discarded and 100 microlitres of RIPA lysis buffer (containing proteinase inhibitors, Boston BioProducts BP-115D) was added and the plate was sealed and shaken on ice for 20 minutes. The plate was centrifuged as before and 70 microlitres of sample lysate was added to the MSD plates and they were shaken at room temperature for I hour at 600 rpm. The MSD plate was washed 3 times as before and then the primary MK2 detection antibody (Santa Cruz sc-100393) was added at a final concentration of 1 microgram per ml at 25 microlitres per well and shaken at room temperature for 1 hour at 600 rpm.
(§2) After 3 more washes, the secondary detection antibody (SULFO-Tag anti rabbit antibody R32AB-5) was added at a final concentration of 1 microgram per ml at 25 microlitres per well and shaken at room temperature for 1 hour at 600 rpm. After 3 more washes, the 1X MSD (diluted from 5X concentrate with water) reading buffer was added at 150 microlitres per well and read on the MSD instrument Meso Sector S 600.
(§3) The inhibition/degradation curves and DC50 values were plotted and calculated using XL Fit (version v5.3.1.3) using equation 201 and a 4 parameter logistic model whereby fit=(A+((B−A)/(1+((x/C)D))) where A is the Bottom and B is the Top and C is the IC50and D is the slope and high C is the signal for the DMSO treated cells and Low C is the signal is the signal for the lysis buffer.

[2] = target: T1, MK2; assay: MK2 degradation in human SW1353 cells (MSD, 24 h); type: cell-based; parameters: endogenous in cells; host or cells: SW-1353 (ATCC HTB-94); conditions: for Dmax: read-out: MK2 MSD SW 1353 24 h Dmax %; for DC50: read-out: MK2 MSD SW1353 degradation 24 h GMean External Abs DC50
Protocol: The human chondrocyte cancer cell line SW-1353 (ATCC(HTB-94)) was cultured in 96 well plates (Coming 3894) at a density of 200,000 cells per well in 100 microlitres in complete growth medium of Leibovitz's L-15 Medium (Gibco) pus 10% fetal Bovine Serum (Coming) and Penicillin/Streptomycin (SolarBio) at 37 degrees Celsius. A serial dilution of each compound (usually 3 to 5 fold serial dilutions up to 10 separate concentration points) was added to individual wells from a 10 millimolar stock solution, at a background concentration of 0.10% DMSO and the cells were shaken at 600 rpm for 5 minutes and then were cultured for 24 hours at 37 degrees Celsius. Separately, a custom MSD (MesoScaleDiscovery, L15XA-3) plate for detection of human MK2 was prepared by coating the plate with the commercial AbCam ab247272 reagent in 1× Phosphate Buffered Saline at 40 microlitres per well and incubated at 4 degrees Celsius overnight. The next day, the MSD plate was washed with 150 microlitres of Tween buffered saline, blocked with MSD blocking buffer (3% Blocker A from MSD), and washed again.
as §1, with “for 1” for “for I”
as §2
as §3, with “IC50 and” for “IC50and”

T1 sequence (P49137 whole entry): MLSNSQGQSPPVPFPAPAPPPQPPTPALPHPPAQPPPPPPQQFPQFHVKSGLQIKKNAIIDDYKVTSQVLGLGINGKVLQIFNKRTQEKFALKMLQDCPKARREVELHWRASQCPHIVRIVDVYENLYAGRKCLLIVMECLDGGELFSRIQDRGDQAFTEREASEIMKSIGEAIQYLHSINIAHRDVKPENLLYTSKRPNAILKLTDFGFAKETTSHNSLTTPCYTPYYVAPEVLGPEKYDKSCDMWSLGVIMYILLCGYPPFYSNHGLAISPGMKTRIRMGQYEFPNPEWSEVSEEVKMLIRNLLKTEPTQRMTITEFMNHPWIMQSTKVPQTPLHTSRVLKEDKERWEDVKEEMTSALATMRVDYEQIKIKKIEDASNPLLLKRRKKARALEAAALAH

Row | Structure (SMILES) | Dmax [1] [%] | DC50 [1] [nM] | Dmax [2] [%] | DC50 [2] [nM]
1 | Cn1c(=O)n(C2CCC(=O)NC2=O)c2ccc(N3CC(CN4CCN(c5ccc(-c6nccc(-c7cc8c([nH]7)C7(CC7)CNC8=O)n6)cc5)CC4)C3)cc21 (stereo not drawn) [I-45] | > 50 | > 100 | > 50 | > 100
2 | C[C@@H]1CNc2c(sc3ccc4nc(N5CCN(CC6CC7(CCN(c8ccc9c(N%10CCC(=O)NC%10=O)cncc9c8)CC7)C6)CC5)ccc4c23)C(=O)N1 [I-50] | > 75 | < 1 | > 75 | < 1
3 | Cn1c(=O)n(C2CCC(=O)NC2=O)c2ccc(N3CCN(CC#Cc4ccc(-c5nccc(-c6cc7c([nH]6)C6(CC6)CNC7=O)n5)cc4)CC3)cc21 (stereo not drawn) [I-51] | > 75 | < 1 | > 50 | 1 to 10
4 | C[C@@H]1CNc2c(sc3ccc4nc(N5CCC(CN6CCC7(CC6)CN(c6ccc8c(c6)n(C)c(=O)n8C6CCC(=O)N(C)C6=O)C7)CC5)ccc4c23)C(=O)N1 (stereo partly drawn) [I-52] | > 75 | > 100 | > 75 | 1 to 10
5 | COc1cc(-c2nccc(-c3cc4c([nH]3)C3(CC3)CNC4=O)n2)ccc1N1CCN(CC2CN(c3ccc4c(c3)n(C)c(=O)n4C3CCC(=O)NC3=O)C2)CC1 (stereo not drawn) [I-54] | 50 to 75 | < 1 | > 50 | < 1

Now from value to molecule:

Row | Dmax [1] [%] | DC50 [1] [nM] | Dmax [2] [%] | DC50 [2] [nM] | Structure (SMILES)
6 | > 75 | < 1 | > 75 | < 1 | C[C@@H]1CNc2c(sc3ccc4nc(N5CCC(N(CC(F)F)C6CC7(CCN(c8ccc9c(c8)n(C)c(=O)n9C8CCC(=O)NC8=O)CC7)C6)CC5)ccc4c23)C(=O)N1 (stereo partly drawn) [I-46]
7 | > 50 | < 1 | > 50 | > 100 | Cn1c(=O)n(C2CCC(=O)NC2=O)c2ccc(N3CC(CN4CCN(c5ccc(-c6nccc(-c7cc8c([nH]7)C7(CC7)CNC8=O)n6)cc5OC5CC5)CC4)C3)cc21 (stereo not drawn) [I-47]
8 | > 75 | < 1 | 50 to 75 | < 1 | Cn1c(=O)n(C2CCC(=O)NC2=O)c2ccc(N3CC(CN4CCN(c5ccc(-c6nccc(-c7cc8c([nH]7)C7(CC7)CNC8=O)n6)cc5C(F)(F)F)CC4)C3)cc21 (stereo not drawn) [I-48]
9 | 50 to 75 | < 1 | > 50 | 10 to 100 | Cn1c(=O)n(C2CCC(=O)NC2=O)c2ccc(N3CC(CN4CCN(c5ccc(-c6nccc(-c7cc8c([nH]7)C7(CC7)CNC8=O)n6)cc5C5CC5)CC4)C3)cc21 (stereo not drawn) [I-49]
